In data set [1] the test system is endogenous mouse Hdh allele. As to the kind of experiment: Western immunoblot of endogenous mouse htt expression in PNA-treated R6/1 mice. The note with it: any tissue examined (striatum, liver), any tested time point (4 or 6 days). It counts as in vivo. How it is done:
Cannulation and microsurgery—method 1: B6CBA, R6/1, and R6/2 mice were obtained from The Jackson Laboratory (Bar Harbor, Me.). Mice were anesthetized via intraperitoneal (i.p.) injection with 100 mg/kg of a ketamine/xylazine solution containing 8 mg/mL ketamine and 1 mg/mL xylazine in 0.9% saline. Once anesthetized, each mouse was cannulated. Each anesthetized mouse was placed in a Stoelting Stereotaxic Frame with a mouse adapter (Stoelting Instruments, Wood Dale, Ill.). An incision was made using a scalpel, and the skin and tissue were pulled back with swabs to reveal the skull. The cannulation site was positioned for optimum access to the ventricle, at coordinates AP −0.2 mm, Horiz −1 mm from bregma. A cannula entry port and two bone screw ports were opened in the skull using a Dremel Flex Shaft Drill (Stoelting Instruments) with a 2.1 mm burr for the guide cannula port and a 0.7 mm burr for the bone screws (Fine Science Tools, Foster City, Calif.). Two 4.0 mm long bone screws (0.85 diameter) were placed far enough into the bone screw ports to fasten securely. […]
Following the treatment period, mice were anesthetized with ether and sacrificed by cervical dislocation. […] Following centrifugation, the supernatants were removed and protein concentrations were quantified by Bradford assays using a BSA standard. […]

Another data set deals with GAPDH. The data set is described as follows: Western immunoblot of GAPDH (non-targeted gene) in PNA-treated R6/1 mice. The note with it: any animal tested. Format: in vivo, mouse. On the procedure:
Following the treatment period, mice were anesthetized with ether and sacrificed by cervical dislocation. Whole brains and livers were removed and placed in 0.9% saline. Striatum tissue was dissected from whole brains, and liver tissue was finely minced. The tissues were placed in separate 2 mL microfuge tubes on dry ice and then suspended in 20 volumes of RIPA buffer (50 mM Tris pH 8, 150 mM NaCl, 1 mM EDTA, 1 mM EGTA, 0.5% sodium deoxycholate, 0.1% SDS, 1% TritonX-100, 2 μg/mL leupeptin, 2 μg/mL aprotinin, 1 μg/mL pepstatin, 1 mM phenylmethylsulfonylfluoride) per gram of tissue. Suspended tissues were homogenized by sonication, and the homogenates were clarified by centrifugation at 12,000×g for 20 minutes at 4° C. Following centrifugation, the supernatants were removed and protein concentrations were quantified by Bradford assays using a BSA standard.
Immunoblotting: Supernatants from the tissue homogenates were mixed with 1/6 volume of 6×SDS sample buffer (350 mM Tris pH 6.8, 10% SDS, 30% glycerol, 15% 2-mercaptoethanol, 0.012% bromophenol blue). Equal amounts of protein were directly loaded onto 10% acrylamide/0.05% bisacrylamide gels without heat denaturation. […] Protein bands were detected on film by chemiluminescence. […]

In another data set the test system is mice. As to the kind of experiment: Toxicity observation (behavior, weight, motor function) during intraventricular PNA treatment. Format: in vivo. The note with it: 1.0 μL (25 μg/μL) into the ventricle every other day. How it is done: Animal treatment and tissue preparation: Aliquots of 1.0 μL (25 μg/μL) of a PNA oligomer specific for the expanded human HD allele (HDs) or a scrambled control PNA (HDscr) were administered into the ventricle every other day by injection via the cannula.

For “HDscr: scrambled control PNA oligomer, 5′-GCAGCGGCGGTCCT-3′ (SEQ ID NO:4) (all peptide nucleic acid (PNA)) [reference compound]”, the “effect on expression of the endogenous mouse Hdh allele” value in data set [1] is given as “Neither HDs nor HDscr had any effect”. For the same substance, the “inhibition of non-targeted genes such as GAPDH” value with GAPDH is recorded as “No measurable inhibition”. For the same substance, the “toxicity as measured by weight or motor function relative to untreated animals” value in the data set on mice is “no effects of toxicity”.

The values are drawn from patent US20040009899A1, “Treating dominant disorders” (priority 2002, published 2004).
